The values that follow are results of earlier work, collected in patent US8476252B2, “Pharmaceutical emulsion compositions comprising progestogen” (Besins Healthcare Luxembourg SARL, priority 2010, dated 2013).

The subject of this data set is TBI patients. Particulars: Xiao et al 2008, Wright et al 2007.

`CC(=O)[C@H]1CC[C@H]2[C@@H]3CCC4=CC(=O)CC[C@]4(C)[C@H]3CC[C@]12C` [progesterone, pregn-4-ene-3,20-dione]: where the note is “TBI patients”, the Safety and tolerability entry was “safe and well tolerated”. Moreover, for the setting “administration of progesterone to TBI patients”, the Mortality result is listed as “decreased mortality”.
